The text below walks through data of PMC11320178 (Chemical Science, 2024).

Where no end group is shown, it is not given here.

Data set [1] in a line: Stability of the cyclic peptide against ROS environment. The format is physicochemical. Particulars: P1 ∼100 μM, ∼150 μM H2O2 in PBS pH 7.4, after 6 h, LC-MS.
Data set [2] is classed as physicochemical. Conditions: equimolar semicarbazide derivative (∼100 μM) in PBS pH 7.4, 20 min, LC-MS.
For data set [3] the following is noted: pH 2.

Regarding “CIITRPC (also: sidechain bridge or staple (positions not given here)) [P1]”, the “Stability in H2O2” value in data set [1] is reported as “remarkable stability”. Also, the “Linearization by semicarbazide (diazaborine conjugate formation)” value in data set [2] is recorded as “linearized”. Besides, the “Stability under a wide range of pH values (no complete dissociation of the thiazolidine ring)” value in data set [3] was “high stability”.
